Publication PMC7832401, “Antimycobacterial, Cytotoxic, and Antioxidant Activities of Abietane Diterpenoids Isolated from Plectranthus madagascariensis” (Plants, 2021)
Values joined by “and” are separate entries in the source; they are usually repeats but may differ in a detail not shown here. Identical values can stand only once. Like-named read-outs stand apart in the source and are kept apart here.

Assays:
[1] = In vitro cytotoxicity MTT assay; details: human
[2] = ORAC (Oxygen Radical Absorbance Capacity) assay; details: for ORAC: μM Trolox equivalents per gram, mean ± SD
Description: The ORAC assay was conducted according to Prior et al.’s method, which is a modified version of the original ORAC assay developed by Cao and Prior [26]. In this assay, 2,2′-azobis(2-amidinopropane) dihydrochloride (AAPH) underwent thermal decomposition to generate peroxyl radicals, resulting in a reduction in fluorescence from fluorescein. The antioxidant potential of the isolated compounds was measured by their ability to prevent any loss in fluorescence from fluorescein by neutralizing peroxyl radicals and assessing the sample’s fluorescence area under the curve (AUC). The fluoroskan spectrum plate reader was programmed to record fluorescein’s fluorescence every 2 min after the addition of AAPH with the excitation wavelength at 485 nm and the emission wavelength at 530 nm. The Trolox (TE) stock solution was used as standard with concentration varying between 0 and 417 μM. The ORAC values were calculated using a regression equation (y = mx + c) between Trolox concentration (y in μM) and the net area under the fluorescence decay curve (x). ORAC values were expressed as μM Trolox equivalents (TE) per gram of test samples (μM TE/g). The antioxidant epigallocatechin gallate (EGCG) was used as a positive control.

[3] = system: Mtb H37Rv pMSp12::GFP bioreporter strain; experiment: microbe, parasite or virus in culture; assay type: cell-based, Mycobacterium tuberculosis; details: for MIC90: Mycobacterium tuberculosis, H37RV; for ADC MIC increase: may be due to serum binding
[4] = TEAC (Trolox Equivalent Absorbance Capacity) assay; details: for TEAC: μM Trolox equivalents per gram, mean ± SD
Description: The TEAC assay was done according to the method developed by Pellegrini et al., which consists of determining the activities of the isolated compounds in terms of μM Trolox equivalents per gram dry weight (μM TE/g) of the test samples. Trolox was used as the standard with concentrations ranging from 0–500 μM. The absorbance was recorded by a Multiskan spectrometer plate reader at wavelength 734 nm. The antioxidant epigallocatechin gallate (EGCG) was used as a positive control.

[5] = FRAP (Ferric Ion Reducing Antioxidant Power) assay; details: for FRAP: μM ascorbic acid equivalents per gram, mean ± SD
Description: The FRAP assay was conducted according to Benzie and Strain’s method, which consists of finding the compounds’ antioxidant potential in terms of μM ascorbic acid equivalents per gram dry weight (μM AAE/g). L-Ascorbic acid was used as a standard in the FRAP assay with concentrations varying between 0 and 1000 μM. The antioxidant potential of the tested samples was read at a wavelength of 593 nm in a Multiskan (Thermo Fisher Scientific, Waltham, MA, USA) spectrum plate reader.

HaCaT cells = experiment: In vitro cytotoxicity MTT assay; details: HaCaT cells
in vitro = details: human
[6] = 168 h, […], 7 days, 90% inhibition, read-out: MIC90, 7H9/ADC/Glu/Tw, 7 Days
[7] = 168 h, […], 7 days, 90% inhibition, read-out: MIC90, 7H9/CAS/ Glu/Tx, 7 Days
[8] = 168 h, […], 7 days, value in brackets, read-out: MIC90, 7H9/CAS/ Glu/Tx, 7 Days
[9] = 168 h, supplement, […], day 7, read-out: GFP Assay - 10pt DR: MIC90 [Media: 7H9 ADC GLU Tw, Day:7]
[10] = 168 h, supplement, […], day 7, read-out: GFP Assay - 10pt DR: MIC90 [Media: 7H9 CAS GLU Tx, Day:7]
[11] = 336 h, […], 14 days, 90% inhibition, read-out: MIC90, 7H9/ADC/Glu/Tw, 14 Days
[12] = 336 h, […], 14 days, 90% inhibition, read-out: MIC90, 7H9/CAS/ Glu/Tx, 14 Days
[13] = 336 h, […], 14 days, value in brackets, read-out: MIC90, 7H9/CAS/ Glu/Tx, 14 Days
[14] = 336 h, supplement, […], day 14, read-out: GFP Assay - 10pt DR: MIC90 [Media: 7H9 ADC GLU Tw, Day:14]
[15] = 336 h, supplement, […], day 14, read-out: GFP Assay - 10pt DR: MIC90 [Media: 7H9 CAS GLU Tx, Day:14]
[16] = span over compounds, medium and day not stated (abstract), read-out: MIC90 against Mycobacterium tuberculosis H37Rv
[17] = 168 h, […], 7 days, value in brackets, read-out: MIC90, 7H9/ADC/Glu/Tw, 7 Days
[18] = 336 h, […], 14 days, value in brackets, read-out: MIC90, 7H9/ADC/Glu/Tw, 14 Days

SMILES: CC(C)C1=C(O)C(=O)C2=C(C1=O)[C@H](O)[C@@H](O)C1C(C)(C)CCC[C@]21C (stereo partly drawn) [Compound 1, 6β,7α-dihydroxyroyleanone]
- IC50 at 24 h [1]: 60.2 µg/mL and 173 µM
- antioxidant activity in ORAC assay (in words) [2]: good antioxidant activities
- ORAC [2]: 23,625.0 ± 1.64 µM TE/g
- MIC90 [3, 6]: > 125 µg/mL
- MIC90 [3, 7]: 62.5 µg/mL
- MIC90 [3, 8]: 180 µM
- MIC90 [3, 9]: > 125 µg/mL
- MIC90 [3, 10]: 62.5 µg/mL
- MIC90 [3, 11]: > 125 µg/mL
- MIC90 [3, 12]: 60.6 µg/mL
- MIC90 [3, 13]: 174 µM
- MIC90 [3, 14]: > 125 µg/mL
- MIC90 [3, 15]: 60.6 µg/mL
- MIC90 [3, 16]: 5.61 to 180 µM
- antioxidant activity in TEAC assay (in words) [4]: good antioxidant activities
- TEAC [4]: 5080.8 ± 0.04 µM TE/g
- antioxidant activity in FRAP assay (in words) [5]: very little activity
- FRAP [5]: 541.5 ± 1.59 µM AAE/g

SMILES: CC(=O)OC1C2=C(C(=O)C(O)=C(C(C)C)C2=O)C2(C)CCCC(C)(C)C2C1O (stereo not drawn) [Compound 2, 7α-acetoxy-6β-hydroxyroyleanone]
- IC50 at 24 h [1]: 42.7 µg/mL and 109 µM
- antioxidant activity in ORAC assay (in words) [2]: good activity
- ORAC [2]: 21,404.1 ± 4.35 µM TE/g
- antimycobacterial activity (in words) [3]: moderate activities
- MIC90 [3, 6]: 14.4 µg/mL
- MIC90 [3, 7]: 15.2 µg/mL
- MIC90 [3, 17]: 36.8 µM
- MIC90 [3, 8]: 39 µM
- MIC90 [3, 9]: 15 µg/mL
- MIC90 [3, 10]: 15.2 µg/mL
- MIC90 [3, 11]: 14.6 µg/mL
- MIC90 [3, 12]: 15.6 µg/mL
- MIC90 [3, 18]: 37.5 µM
- MIC90 [3, 13]: 40.1 µM
- MIC90 [3, 14]: 33.6 µg/mL
- MIC90 [3, 15]: 15.6 µg/mL
- MIC90 [3, 16]: 5.61 to 180 µM
- antioxidant activity in TEAC assay (in words) [4]: weak antioxidant activities
- TEAC [4]: 3700.8 ± 1.50 µM TE/g
- antioxidant activity in FRAP assay (in words) [5]: weak antioxidant activities
- FRAP [5]: 345.5 ± 0.77 µM AAE/g

SMILES: CC(C)C1=C(O)C(=O)C2=C(C1=O)[C@H](O)C[C@H]1C(C)(C)CCC[C@]21C [Compound 3, horminone]
- IC50 at 24 h [1]: 53.7 µg/mL and 162 µM
- ORAC [2]: 12,443.3 ± 3.61 µM TE/g
- MIC90 [3, 6]: > 125 µg/mL
- MIC90 [3, 7]: 14.3 µg/mL
- MIC90 [3, 8]: 43.2 µM
- MIC90 [3, 9]: > 125 µg/mL
- MIC90 [3, 10]: 14.3 µg/mL
- MIC90 [3, 11]: > 125 µg/mL
- MIC90 [3, 12]: 3.96 µg/mL
- MIC90 [3, 13]: 11.9 µM
- MIC90 [3, 14]: > 125 µg/mL
- MIC90 [3, 15]: 3.96 µg/mL
- MIC90 [3, 16]: 5.61 to 180 µM
- ADC MIC increase ([3]; […]): ADC MIC is increased > 4 fold which may be due to serum binding
- TEAC [4]: Inactive
- FRAP [5]: 296.5 ± 6.72 µM AAE/g

SMILES: CC(C)C1=C(O)C(=O)C2=C(C(=O)C(O)=C3C(C)(C)CCC[C@]23C)C1=O [Compound 4, coleon U quinone]
- cytotoxic activity against HaCaT cells (in words) (HaCaT cells): good cytotoxic activities
- IC50 at 24 h [1]: 33.9 µg/mL and 98.5 µM
- antioxidant activity in ORAC assay (in words) [2]: good activity
- ORAC [2]: 21,857.8 ± 5.85 µM TE/g
- MIC90 [3, 6]: > 125 µg/mL
- MIC90 [3, 7]: 15.6 µg/mL
- MIC90 [3, 8]: 45.4 µM
- MIC90 [3, 9]: > 125 µg/mL
- MIC90 [3, 10]: 15.6 µg/mL
- MIC90 [3, 11]: > 125 µg/mL
- MIC90 [3, 12]: 1.93 µg/mL
- MIC90 [3, 13]: 5.61 µM
- MIC90 [3, 14]: > 125 µg/mL
- MIC90 [3, 15]: 1.94 µg/mL
- MIC90 [3, 16]: 5.61 to 180 µM
- ADC MIC increase ([3]; […]): ADC MIC is increased > 4 fold which may be due to serum binding
- antioxidant activity in TEAC assay (in words) [4]: weak antioxidant activities
- TEAC [4]: 225.5 ± 1.47 µM TE/g
- antioxidant activity in FRAP assay (in words) [5]: weak antioxidant activities
- FRAP [5]: 2109.6 ± 2.78 µM AAE/g

SMILES: CC(C)c1cc2c(c(O)c1O)[C@@]13CCCC(C)(C)[C@@H]1[C@](O)(OC3)C2=O [Compound 5, carnosolon]
- cytotoxic activity against HaCaT cells (in words) (HaCaT cells): good cytotoxic activities
- IC50 at 24 h [1]: 27.5 µg/mL and 79.8 µM
- ORAC [2]: 29,287.4 ± 4.75 µM TE/g
- MIC90 [3, 6]: > 125 µg/mL
- MIC90 [3, 7]: > 125 µg/mL
- MIC90 [3, 9]: > 125 µg/mL
- MIC90 [3, 10]: > 125 µg/mL
- MIC90 [3, 11]: > 125 µg/mL
- MIC90 [3, 12]: > 125 µg/mL
- MIC90 [3, 14]: > 125 µg/mL
- MIC90 [3, 15]: > 125 µg/mL
- MIC90 ([3]; in both media, read-out: MIC90 against Mtb H37Rv): > 125 µg/mL
- TEAC [4]: 4876.3 ± 0.49 µM TE/g
- FRAP [5]: 13,772.2 ± 2.76 µM AAE/g

SMILES: O=C(O[C@@H]1Cc2c(O)cc(O)cc2O[C@@H]1c1cc(O)c(O)c(O)c1)c1cc(O)c(O)c(O)c1 [EGCG, epigallocatechin gallate, reference compound]
- ORAC [2]: 14,970.0 ± 5.53 µM TE/g
- TEAC [4]: 4722.5 ± 2.22 µM TE/g
- FRAP [5]: 10,455.1 ± 0.81 µM AAE/g

SMILES: CO[C@H]1/C=C/O[C@@]2(C)Oc3c(C)c(O)c4c(O)c(c(/C=N/N5CCN(C)CC5)c(O)c4c3C2=O)NC(=O)/C(C)=C\C=C\[C@H](C)[C@H](O)[C@@H](C)[C@@H](O)[C@@H](C)[C@H](OC(C)=O)[C@@H]1C [Rifampicin, reference compound]
- MIC90 [3, 6]: 0.001 µg/mL
- MIC90 [3, 7]: 0.015 µg/mL
- MIC90 [3, 17]: 0.001 µM
- MIC90 [3, 8]: 0.02 µM
- MIC90 [3, 9]: 0.001 µg/mL
- MIC90 [3, 10]: 0.013 µg/mL
- MIC90 [3, 11]: 0.002 µg/mL
- MIC90 [3, 12]: 0.035 µg/mL
- MIC90 [3, 18]: 0.002 µM
- MIC90 [3, 13]: 0.04 µM
- MIC90 [3, 14]: 0.0011 µg/mL
- MIC90 [3, 15]: 0.018 µg/mL
- GFP Assay - 10pt DR: MIC90 [Media: 7H9 ADC GLU Tw, Day:7] ([3]; supplement, […], day 7): 0.002 µg/mL
- GFP Assay - 10pt DR: MIC90 [Media: 7H9 CAS GLU Tx, Day:7] ([3]; supplement, […], day 7): 0.015 µg/mL
- GFP Assay - 10pt DR: MIC90 [Media: 7H9 ADC GLU Tw, Day:14] ([3]; supplement, […], day 14): 0.001 µg/mL
- GFP Assay - 10pt DR: MIC90 [Media: 7H9 CAS GLU Tx, Day:14] ([3]; supplement, […], day 14): 0.035 µg/mL

SMILES: CC/C(=C(\c1ccccc1)c1ccc(OCCN(C)C)cc1)c1ccccc1 [tamoxifen]
- IC50 at 24 h (in vitro): 22 µg/mL and 59.3 µM
